Laboratory results: publication PMC6508865, “Dynamics of thymol dietary supplementation in quail (Coturnix japonica): Linking bioavailability, effects on egg yolk total fatty acids and performance traits” (PLoS ONE, 2019)

What was measured:
[1] = system: female Japanese quail (Coturnix japonica); experiment: Female performance traits (body weight, feed intake, egg laying, egg physical characteristics); assay type: in vivo
Description: A total of 50 eighty-five days-old female quail of homogeneous body weights (251 ± 1 g; Mean ± SE) and in their egg-laying peak were selected from an initial group of 96 female individuals. All birds continued receiving a basal diet between 85 and 100 days of age and all variables (see below for details) were registered along this period (Pre-supplementation period, Fig 1). From 100 to 128 days of age (S period, Fig 1), females were randomly assigned to either a chronic dietary supplementation with one of 3 THY doses (THY2, THY4 and THY6; 10 females each) or to one of 2 control groups (basal diet, BASAL, and basal diet with vehicle solution, VEHICLE; 10 females each). Once finished the S period, half of the quail were slaughtered for histological analysis (n = 25; Slaughter 1, Fig 1) and the other half were subjected to a pS period of 21 days, during which all females received the BASAL diet (pS, Fig 1). After this period, the remaining 25 animals were also slaughtered for histological analysis (Slaughter 2, Fig 1). In this way, we assessed whether THY induced changes in variables indicative of tissue damage and if so, whether the potential damages could reverse after 3 weeks of supplement withdrawal.
To assess changes in egg yolk total FA composition, egg physical characteristics, laying rate, body weight, feed intake and general welfare, during the S and pS periods, five sampling points were defined (Sample points, Fig 1): one initial sample point (at 0 days of S); three sample points during the S period (at 7, 14 and 28 days of S); and one sample point at the end of the pS period (21 days of pS). It should be noted that for determinations of THY concentration, eggs and quail droppings were collected offset from the other variables measured by 2 days, thus were collected on days 2, 9, 16, and 26 days of S, and 17 days of pS, respectively.
Female performance was evaluated through the measurement of body weight, feed intake, egg laying rate, egg physical characteristics and a general welfare quality assessment. Body weight was measured once a week throughout the experimental period. Daily feed intake (DFI) was estimated as the difference between the amount of feed supplied to each animal (60 g) and the rest that remained in the feeders the next day (g of feed/day/quail). Egg laying was registered daily and the weekly laying rate was calculated as: (number of eggs / 7 days) x 100. Egg weight, quality characteristics (such as intact, membranous, soft shell and broken shell), morphometric characteristics (egg shape index = (egg width / egg length) x 100) and percentage of constituents (egg yolk, albumen and shell) were registered at each sampling point.

[2] = system: female Japanese quail (Coturnix japonica); experiment: General welfare quality assessment; assay type: in vivo; settings: 2, 4, 6.25 g of THY/kg feed
Protocol: A welfare assessment based on observations of physical characteristics was made. Female skin lesions and plumage status were evaluated following a procedure proposed by Pellegrini et al. that is an adapted version of the protocol developed by the Welfare Quality consortium. Briefly, skin lesions, which include wounds that have not healed in the legs, rear end, chest, cloacae and wings were determined using a score scale from 0 to 2, where "0" represents no lesions or scratches, "1" represents at least one lesion < 0.5 cm diameter or less than 3 pecks (punctiform damage ~ 0.1 cm of diameter) or scratches, and "2" reflects one lesion ≥ 0.5 cm of diameter or more than 3 pecks or scratches. Plumage damage was also determined using a score scale from 0 to 2 as follows: "0" represents individuals with no plumage damage or slight wear (only single feathers lacking), "1" represent individuals with one or more body parts that have moderate wear (i.e. damaged feathers worn or deformed) or one or more featherless areas < 1.5 cm in diameter at the larger extent and "2" corresponded to individuals that have at least one featherless area > 1.5 cm in diameter at the largest extent. […]

[3] = set-up: method as in ref 14 = [14]; 14 Botsoglou N , Yannakopoulos AL , Fletouris DJ , Tserveni-Goussi AS , Fortomaris PD . Effect of dietary thyme on oxidative stability of egg yolk . J Agric Food Chem . 1997; 45 ( 10 ): 3711 – 6 .; settings: cited from earlier work
[4] = overall mean over BASAL, VEHICLE and 2, 4, 6.25 g thymol/kg feed diets and five sampling times, no effect of diet

Cc1ccc(C(C)C)c(O)c1 [THY, 2 isopropyl-5-methylphenol]
effect on physical egg traits ([1]; 2, 4, 6.25 g of THY/kg feed): did not affect
effect of the diet supplied on performance variables (body weight, feed intake, egg laying, morphometric characteristics and constituents of eggs) ([1]; 2, 4, 6.25 g of THY/kg feed vs controls, 28 days S and 21 days pS): no effects
Egg shape index ([1]; (egg width / egg length) x 100, overall mean over BASAL, VEHICLE and 2, 4, 6.25 g thymol/kg feed diets and five sampling times, no effect of diet): 79.5%
daily feed intake ([1]; no differences between treatments, all diets): 30.3 ± 1 g/day/animal
Egg albumen [1, 4]: 48.6%
Egg shell [1, 4]: 14.4%
Egg weight [1, 4]: 11.3 g
Egg yolk [1, 4]: 37.0%
Weekly Body Weight per individual [1, 4]: 254 g
Weekly Feed Intake per individual [1, 4]: 212 g
Cumulative number of eggs ([1]; overall mean over BASAL, VEHICLE and 2, 4, 6.25 g thymol/kg feed diets, no effect of diet): 42
effect on general well-being [2]: did not affect
concentration of THY needed to be added to a control yolk for antioxidant activity equivalent to a yolk from a thyme treated hen [3]: 278 ug of THY/g of yolk
